From patent publication US11787785B2 (NOVARTIS AG, priority 2021, dated 2023) come the findings set out here.

The target in this experiment is T1, WIZ protein (HiBit-WIZ fusion protein) (Homo sapiens, UniProt O95785+Q96SW2).
T1 construct: expressed in transfected cells
Description: Quantification of WIZ protein levels in HiBit tag fusion protein assay (WIZ HiBit assay in 293T cells). As to conditions: for Dmax at 25 µM / remaining activity at 25 µM: HEK-293T, 293T cells; for Dmax at 25 µM: 100 − Amax, read-out: % degradation of WIZ (100 − Amax); for remaining activity at 25 µM: DMSO-normalized, curve-fitted percentage of WIZ-HiBit remaining at 25 uM, read-out: WIZ Amax; for DC50: WIZ HiBit assay in 293T cells, 10-point, 5-fold dose response, highest concentration 25 μM, about 18 hours, read-out: WIZ AC50. In kind it is cell-based. The method, boiled down: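 HiBit-tagged WIZ (N-terminal tag, HSVTK promoter) stably expressed single-copy in 293T cells; 10-point 1:5 compound series, top 25 μM, ~18 h at 37 °C. Lytic HiBit/LgBit luminescence read; Amax = curve-fitted % WIZ-HiBit remaining at 25 μM, DMSO normalized to 100%.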
(In general: With HiBiT, luminescence reflects the tagged protein that the partner subunit can reach.)

SMILES strings stand for the structures.

T1 sequence (O95785 whole entry, the tested form may be a part): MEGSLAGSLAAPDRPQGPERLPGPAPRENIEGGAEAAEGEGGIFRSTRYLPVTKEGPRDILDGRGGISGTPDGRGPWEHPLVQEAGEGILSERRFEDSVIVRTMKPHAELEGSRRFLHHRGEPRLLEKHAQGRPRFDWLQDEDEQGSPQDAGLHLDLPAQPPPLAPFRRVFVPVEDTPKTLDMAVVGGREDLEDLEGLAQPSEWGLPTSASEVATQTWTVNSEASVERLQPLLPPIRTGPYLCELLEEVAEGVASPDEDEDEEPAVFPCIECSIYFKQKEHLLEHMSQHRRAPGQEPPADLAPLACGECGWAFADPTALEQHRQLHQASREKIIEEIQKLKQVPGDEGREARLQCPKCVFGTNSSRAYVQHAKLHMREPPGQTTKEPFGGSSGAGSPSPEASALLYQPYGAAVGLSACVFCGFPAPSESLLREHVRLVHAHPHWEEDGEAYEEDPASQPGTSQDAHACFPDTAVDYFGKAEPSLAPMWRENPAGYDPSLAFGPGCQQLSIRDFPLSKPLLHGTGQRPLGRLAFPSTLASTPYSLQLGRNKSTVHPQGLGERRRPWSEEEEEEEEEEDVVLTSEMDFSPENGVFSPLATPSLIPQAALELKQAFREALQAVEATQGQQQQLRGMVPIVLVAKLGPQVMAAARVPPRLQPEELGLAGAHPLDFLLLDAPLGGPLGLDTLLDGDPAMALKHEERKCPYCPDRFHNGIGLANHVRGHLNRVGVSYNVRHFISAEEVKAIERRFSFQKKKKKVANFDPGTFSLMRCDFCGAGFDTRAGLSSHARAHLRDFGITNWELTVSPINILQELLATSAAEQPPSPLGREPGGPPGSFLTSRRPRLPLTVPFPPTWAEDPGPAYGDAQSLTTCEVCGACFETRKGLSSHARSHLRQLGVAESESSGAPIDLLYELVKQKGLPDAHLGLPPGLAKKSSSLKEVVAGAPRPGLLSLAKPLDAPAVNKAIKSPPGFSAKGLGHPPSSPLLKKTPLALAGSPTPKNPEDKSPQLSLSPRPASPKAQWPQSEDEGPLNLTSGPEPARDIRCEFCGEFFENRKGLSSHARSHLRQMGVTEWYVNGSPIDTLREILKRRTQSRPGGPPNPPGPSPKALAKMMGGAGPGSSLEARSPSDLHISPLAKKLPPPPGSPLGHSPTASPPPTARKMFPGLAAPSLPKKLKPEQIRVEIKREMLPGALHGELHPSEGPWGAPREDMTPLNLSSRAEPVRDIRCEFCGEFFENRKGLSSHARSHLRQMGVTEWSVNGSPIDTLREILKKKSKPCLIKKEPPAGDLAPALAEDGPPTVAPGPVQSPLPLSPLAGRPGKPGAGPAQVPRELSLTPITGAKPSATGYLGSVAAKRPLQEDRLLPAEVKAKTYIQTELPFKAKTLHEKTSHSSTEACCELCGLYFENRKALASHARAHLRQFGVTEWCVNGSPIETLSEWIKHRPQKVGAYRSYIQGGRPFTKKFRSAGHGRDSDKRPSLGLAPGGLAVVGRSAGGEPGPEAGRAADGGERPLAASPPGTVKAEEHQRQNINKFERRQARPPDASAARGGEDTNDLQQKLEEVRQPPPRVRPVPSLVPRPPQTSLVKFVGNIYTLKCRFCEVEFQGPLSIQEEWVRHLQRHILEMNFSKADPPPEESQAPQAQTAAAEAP
T1 sequence (Q96SW2 whole entry, the tested form may be a part): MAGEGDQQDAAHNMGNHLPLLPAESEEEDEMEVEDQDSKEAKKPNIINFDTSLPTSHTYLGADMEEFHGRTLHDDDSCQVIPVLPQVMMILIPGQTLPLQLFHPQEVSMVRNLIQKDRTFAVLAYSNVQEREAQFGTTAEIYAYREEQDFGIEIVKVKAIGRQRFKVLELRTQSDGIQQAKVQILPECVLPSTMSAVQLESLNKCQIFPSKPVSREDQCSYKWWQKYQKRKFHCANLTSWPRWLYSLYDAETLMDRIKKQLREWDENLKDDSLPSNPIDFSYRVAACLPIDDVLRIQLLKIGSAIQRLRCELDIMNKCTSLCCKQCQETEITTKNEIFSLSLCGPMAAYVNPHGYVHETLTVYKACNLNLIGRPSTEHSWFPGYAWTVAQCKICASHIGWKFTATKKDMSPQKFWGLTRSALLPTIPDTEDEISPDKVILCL
T1 sequence (Q16531 whole entry partner, the tested form may be a part): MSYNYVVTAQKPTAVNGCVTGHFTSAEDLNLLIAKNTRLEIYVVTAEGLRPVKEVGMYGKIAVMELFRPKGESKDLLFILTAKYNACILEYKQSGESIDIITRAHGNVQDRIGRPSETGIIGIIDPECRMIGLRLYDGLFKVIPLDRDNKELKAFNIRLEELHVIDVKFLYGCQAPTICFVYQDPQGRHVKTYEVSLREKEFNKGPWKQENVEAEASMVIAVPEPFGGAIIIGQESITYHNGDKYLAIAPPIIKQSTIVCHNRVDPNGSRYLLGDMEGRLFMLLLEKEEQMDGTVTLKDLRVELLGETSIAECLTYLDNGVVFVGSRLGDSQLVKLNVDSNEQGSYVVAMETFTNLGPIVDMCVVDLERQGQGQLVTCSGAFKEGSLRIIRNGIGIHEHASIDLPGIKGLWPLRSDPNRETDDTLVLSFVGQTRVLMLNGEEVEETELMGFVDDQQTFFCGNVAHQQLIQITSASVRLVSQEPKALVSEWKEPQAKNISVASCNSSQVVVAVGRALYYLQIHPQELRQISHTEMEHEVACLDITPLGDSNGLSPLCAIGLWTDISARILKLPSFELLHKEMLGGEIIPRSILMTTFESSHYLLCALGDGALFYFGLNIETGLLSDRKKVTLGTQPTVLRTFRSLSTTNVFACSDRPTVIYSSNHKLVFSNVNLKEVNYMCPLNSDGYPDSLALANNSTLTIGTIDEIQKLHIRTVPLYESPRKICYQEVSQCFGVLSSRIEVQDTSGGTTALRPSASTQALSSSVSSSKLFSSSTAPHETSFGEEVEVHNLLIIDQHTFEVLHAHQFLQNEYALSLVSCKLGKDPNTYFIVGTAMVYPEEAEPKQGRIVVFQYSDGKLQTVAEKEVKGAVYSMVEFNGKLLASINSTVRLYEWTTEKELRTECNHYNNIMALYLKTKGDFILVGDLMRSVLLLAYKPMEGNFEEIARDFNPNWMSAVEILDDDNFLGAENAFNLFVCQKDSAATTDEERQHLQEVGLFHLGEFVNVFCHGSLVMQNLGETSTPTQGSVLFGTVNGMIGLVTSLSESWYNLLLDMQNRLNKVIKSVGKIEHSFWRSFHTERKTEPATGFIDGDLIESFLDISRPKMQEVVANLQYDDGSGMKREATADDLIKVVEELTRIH

For the compound `O=C1CCN(c2cnn3ccc(CC4CCN(CC5CCOC5)CC4)cc23)C(=O)N1` (stereo not drawn) [Example 14, 1-(5-((1-((tetrahydrofuran-3-yl)methyl)piperidin-4-yl)methyl)pyrazolo[1,5-a]pyridin-3-yl)dihydropyrimidine-2,4(1H,3H)-dione], the Dmax at 25 µM was determined as 84%, the remaining activity at 25 µM turned out to be 16% and the DC50 worked out at 28 nM.

In the case of `CC(C)CN1CC[C@H](Cc2ccn3ncc(N4CCC(=O)NC4=O)c3c2)C[C@@H]1C(F)(F)F` (relative stereo) [Example 312, (cis)-1-(5-((1-isobutyl-2-(trifluoromethyl)piperidin-4-yl)methyl)pyrazolo[1,5-a]pyridin-3-yl)dihydropyrimidine-2,4(1H,3H)-dione], the Dmax at 25 µM came to 44%, the remaining activity at 25 µM stood at 56% and the DC50 is 370 nM.

As for `O=C1CCN(c2cnn3ccc(CC4CCN(Cc5cccnc5)C4)cc23)C(=O)N1` (stereo not drawn) [Example 129], the Dmax at 25 µM was 35%, the remaining activity at 25 µM was 65% and the DC50 was 800 nM.

For `Cc1cn(-c2cnn3ccc(C[C@@H]4CCN(CC5CC5)[C@@H](C)C4)cc23)c(=O)[nH]c1=O` [Example 348, 1-(5-(((2S,4R)-1-(cyclopropylmethyl)-2-methylpiperidin-4-yl)methyl)pyrazolo[1,5-a]pyridin-3-yl)-5-methylpyrimidine-2,4(1H,3H)-dione], the Dmax at 25 µM was found to be 86%, the remaining activity at 25 µM turned out to be 14% and the DC50 stood at 400 nM.

Regarding `CS(=O)(=O)N1CCC(Cc2ccn3ncc(N4CCC(=O)NC4=O)c3c2)CC1` [Example 90], the Dmax at 25 µM amounted to 77%, the remaining activity at 25 µM turned out to be 23% and the DC50 amounted to 2000 nM.

As for `O=C1CCN(c2cnn3ccc(CN4C[C@H]5CC[C@@H](C4)N5CC4CCCCC4)cc23)C(=O)N1` [Example 252, 1-(5-(((1R,5S)-8-(cyclohexylmethyl)-3,8-diazabicyclo[3.2.1]octan-3-yl)methyl)pyrazolo[1,5-a]pyridin-3-yl)dihydropyrimidine-2,4(1H,3H)-dione], the Dmax at 25 µM was 42%, the remaining activity at 25 µM is 58% and the DC50 came to 277 nM.

With `O=C1CCN(c2cnn3ccc(CC4CNC4)cc23)C(=O)N1` [Example 133, 1-(5-(azetidin-3-ylmethyl)pyrazolo[1,5-a]pyridin-3-yl)dihydropyrimidine-2,4(1H,3H)-dione], the Dmax at 25 µM is 21%, the remaining activity at 25 µM came out at 79% and the DC50 came to 4800 nM.

Turning to `C[C@@H]1CC(CN2CCN(Cc3ccn4ncc(N5CCC(=O)NC5=O)c4c3)C[C@@H]2C)C[C@H](C)O1` (stereo partly drawn) [Example 199, 1-(5-(((3S)-4-(((2R,6S)-2,6-dimethyltetrahydro-2H-pyran-4-yl)methyl)-3-methylpiperazin-1-yl)methyl)pyrazolo[1,5-a]pyridin-3-yl)dihydropyrimidine-2,4(1H,3H)-dione], the Dmax at 25 µM was 86%, the remaining activity at 25 µM was found to be 14% and the DC50 is 9 nM.

With `O=C1CCN(c2cnn3ccc(CC4CCN(CC5(C(F)(F)F)CC5)CC4)cc23)C(=O)N1` [Example 55, 1-(5-((1-((1-(trifluoromethyl)cyclopropyl)methyl)piperidin-4-yl)methyl)pyrazolo[1,5-a]pyridin-3-yl)dihydropyrimidine-2,4(1H,3H)-dione], the Dmax at 25 µM turned out to be 64%, the remaining activity at 25 µM is 36% and the DC50 came to 103 nM.

On to `CCS(=O)(=O)N1CC[C@@H](Cc2ccn3ncc(-n4ccc(=O)[nH]c4=O)c3c2)C[C@@H]1C` [Example 356, 1-(5-(((2S,4R)-1-(ethylsulfonyl)-2-methylpiperidin-4-yl)methyl)pyrazolo[1,5-a]pyridin-3-yl)pyrimidine-2,4(1H,3H)-dione], for which the Dmax at 25 µM was 83%, the remaining activity at 25 µM was 17% and the DC50 was found to be 162 nM.

For the compound `COC[C@H]1CN(Cc2ccn3ncc(N4CCC(=O)NC4=O)c3c2)CCN1CC(C)C` [Example 245, (R)-1-(5-((4-isobutyl-3-(methoxymethyl)piperazin-1-yl)methyl)pyrazolo[1,5-a]pyridin-3-yl)dihydropyrimidine-2,4(1H,3H)-dione], the Dmax at 25 µM was 52%, the remaining activity at 25 µM was 48% and the DC50 was 351 nM.

With `C[C@@H]1CN(CC2CCCCC2)CCN1Cc1ccn2ncc(N3CCC(=O)NC3=O)c2c1` [Example 218], the Dmax at 25 µM came out at 71%, the remaining activity at 25 µM amounted to 29% and the DC50 was 68 nM.

Regarding `CC(c1cccnc1)N1CCC(Cc2ccn3ncc(N4CCC(=O)NC4=O)c3c2)CC1` (stereo not drawn) [Example 21, 1-(5-((1-(1-(pyridin-3-yl)ethyl)piperidin-4-yl)methyl)pyrazolo[1,5-a]pyridin-3-yl)dihydropyrimidine-2,4(1H,3H)-dione], the Dmax at 25 µM worked out at 78%, the remaining activity at 25 µM came to 22% and the DC50 came out at 25 nM.

On to `C[C@H]1CN(Cc2ccn3ncc(N4CCC(=O)NC4=O)c3c2)CCN1C(=O)C1CC1` [Example 340, (S)-1-(5-((4-(cyclopropanecarbonyl)-3-methylpiperazin-1-yl)methyl)pyrazolo[1,5-a]pyridin-3-yl)dihydropyrimidine-2,4(1H,3H)-dione], for which the Dmax at 25 µM is 32%, the remaining activity at 25 µM stood at 68% and the DC50 was found to be 862 nM.

With `CC(C)CN1CCN(Cc2ccn3ncc(-n4ccc(=O)[nH]c4=O)c3c2)C[C@@H]1C` [Example 357, (S)-1-(5-((4-isobutyl-3-methylpiperazin-1-yl)methyl)pyrazolo[1,5-a]pyridin-3-yl)pyrimidine-2,4(1H,3H)-dione], the Dmax at 25 µM is 85%, the remaining activity at 25 µM stood at 15% and the DC50 is 124 nM.

With `CC(C)CN1CCN(Cc2ccn3ncc(N4CCC(=O)NC4=O)c3c2)C[C@@H]1C(F)F` [Example 247, (R)-1-(5-((3-(difluoromethyl)-4-isobutylpiperazin-1-yl)methyl)pyrazolo[1,5-a]pyridin-3-yl)dihydropyrimidine-2,4(1H,3H)-dione], the Dmax at 25 µM was 15%, the remaining activity at 25 µM came to 85% and the DC50 came to 1370 nM.

On to `O=C1CCN(c2cnn3ccc(CC4CCN(S(=O)(=O)N5CCCC5)CC4)cc23)C(=O)N1` [Example 297, 1-(5-((1-(pyrrolidin-1-ylsulfonyl)piperidin-4-yl)methyl)pyrazolo[1,5-a]pyridin-3-yl)dihydropyrimidine-2,4(1H,3H)-dione], for which the Dmax at 25 µM worked out at 68%, the remaining activity at 25 µM stood at 32% and the DC50 came out at 29 nM.

For the compound `CO[C@H]1C[C@@H](CN2CC[C@@H](Cc3ccn4ncc(N5CCC(=O)NC5=O)c4c3)C[C@@H]2C)C1` [Example 303, 1-(5-(((2S,4R)-1-(((1s,3R)-3-methoxycyclobutyl)methyl)-2-methylpiperidin-4-yl)methyl)pyrazolo[1,5-a]pyridin-3-yl)dihydropyrimidine-2,4(1H,3H)-dione], the Dmax at 25 µM is 80%, the remaining activity at 25 µM was 20% and the DC50 was 46 nM.

Consider `CC(C)CCN1CCN(Cc2ccn3ncc(N4CCC(=O)NC4=O)c3c2)C[C@@H]1C` [Example 204], for which the Dmax at 25 µM turned out to be 84%, the remaining activity at 25 µM is 16% and the DC50 came to 51 nM.
